What was measured:
[1] = biological target: GST-Bcl-2 (Homo sapiens, UniProt P10415); experiment: TR-FRET binding assay, GST-Bcl-2 with F-Bak peptide probe; conditions: for Ki: TR-FRET Binding Affinity, GST-Bcl-2, F-Bak peptide probe
In short: (§1)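 Compounds were serially diluted in DMSO from a 50 μM starting solution (2× the starting concentration; 10% DMSO). Plates were incubated for 3 h at room temperature, and TR-FRET was read with 340/35 nm excitation and emission at 520/525 nm (F-Bak) and 495/510 nm (Tb antibody). Ki values were calculated using Wang's competitive-binding equation.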

[2] = biological target: GST-Bcl-XL (Homo sapiens, UniProt Q07817); experiment: TR-FRET binding assay, GST-Bcl-XL with F-Bak peptide probe; conditions: TR-FRET Binding Affinity, GST-Bcl-XL, F-Bak peptide probe
In short: as §1

[3] = tested on: FL5.12/Bcl-2 cells; experiment: FL5.12/Bcl-2 cell viability assay under IL-3 withdrawal (CellTitre Glo); assay type: cell-based, murine; conditions: Mus musculus, IL-3 withdrawn 48 hrs, then 24 hrs with compound
In short: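 IL-3 withdrawal 48 hrs (no WEHI-3B medium), then compound 24 hrs, various concentrations; 37° C, 5% CO2; readout CellTitre Glo. Murine prolymphocytic FL5.12 stably overexpressing Bcl-2.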

GST-Bcl-2, sequence (P10415 whole entry): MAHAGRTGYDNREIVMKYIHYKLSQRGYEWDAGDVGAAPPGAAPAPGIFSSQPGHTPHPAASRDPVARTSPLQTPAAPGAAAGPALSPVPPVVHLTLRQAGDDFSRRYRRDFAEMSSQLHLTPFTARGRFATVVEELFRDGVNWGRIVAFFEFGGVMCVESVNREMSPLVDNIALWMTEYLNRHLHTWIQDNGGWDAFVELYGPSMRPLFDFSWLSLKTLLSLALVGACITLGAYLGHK
GST-Bcl-XL, sequence (Q07817 whole entry): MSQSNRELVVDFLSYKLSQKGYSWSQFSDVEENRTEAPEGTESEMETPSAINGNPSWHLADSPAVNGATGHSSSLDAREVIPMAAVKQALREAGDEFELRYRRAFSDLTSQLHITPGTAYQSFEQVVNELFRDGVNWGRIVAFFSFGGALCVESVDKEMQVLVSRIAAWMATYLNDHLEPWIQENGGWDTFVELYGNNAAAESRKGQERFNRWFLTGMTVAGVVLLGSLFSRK

| SMILES | Ki [1] [nM] | Ki [2] [nM] | EC50 [3] [nM] | Binding selectivity ratio (Bcl-XL Ki/Bcl-2 Ki) ([1]; ratio of TR-FRET Ki values, Bcl-XL over Bcl-2) |
| --- | --- | --- | --- | --- |
| CC1(C)CCC(CN2CCN(c3ccc(C(=O)NS(=O)(=O)c4cnc(NCC5CCOCC5)c(-c5nccs5)c4)c(Oc4cccc5[nH]ccc45)c3)CC2)=C(c2ccc(Cl)cc2)C1 [Example 365, 4-(4-{[2-(4-chlorophenyl)-4,4-dimethylcyclohex-1-en-1-yl]methyl}piperazin-1-yl)-2-(1H-indol-4-yloxy)-N-{[6-[(tetrahydro-2H-pyran-4-ylmethyl)amino]-5-(1,3-thiazol-2-yl)pyridin-3-yl]sulfonyl}benzamide] | 1.08 | > 660 | > 500 | – |
| CCN(CC)C1CCC(Nc2ccc(S(=O)(=O)NC(=O)c3ccc(N4CCN(CC5=C(c6ccc(Cl)cc6)CC(C)(C)CC5)CC4)cc3Oc3cccc4[nH]ccc34)cc2[N+](=O)[O-])CC1 (stereo not shown) [Example 203, 4-(4-{[2-(4-chlorophenyl)-4,4-dimethylcyclohex-1-en-1-yl]methyl}piperazin-1-yl)-N-[(4-{[4-(diethylamino)cyclohexyl]amino}-3-nitrophenyl)sulfonyl]-2-(1H-indol-4-yloxy)benzamide] | 0.031 | 4.3 | 22.3 | – |
| CN(C)C1CCC(Nc2ccc(S(=O)(=O)NC(=O)c3ccc(N4CCN(CC5=C(c6ccc(Cl)cc6)CC(C)(C)CC5)CC4)cc3Oc3cccc4[nH]ccc34)cc2[N+](=O)[O-])CC1 (stereo not shown) [Example 202, 4-(4-{[2-(4-chlorophenyl)-4,4-dimethylcyclohex-1-en-1-yl]methyl}piperazin-1-yl)-N-[(4-{[4-(dimethylamino)cyclohexyl]amino}-3-nitrophenyl)sulfonyl]-2-(1H-indol-4-yloxy)benzamide] | 0.052 | 5.07 | 13.8 | – |
| CC1(C)CCC(CN2CCN(c3ccc(C(=O)NS(=O)(=O)c4cnc(OCC5(F)CCOCC5)c(Cl)c4)c(Oc4cccc5[nH]ccc45)c3)CC2)=C(c2ccc(Cl)cc2)C1 [Example 405, N-({5-chloro-6-[(4-fluorotetrahydro-2H-pyran-4-yl)methoxy]pyridin-3-yl}sulfonyl)-4-(4-{[2-(4-chlorophenyl)-4,4-dimethylcyclohex-1-en-1-yl]methyl}piperazin-1-yl)-2-(1H-indol-4-yloxy)benzamide] | 0.04 | 55.3 | 11.6 | 1394.8 |
| CC1(C)CCC(CN2CCN(c3ccc(C(=O)NS(=O)(=O)c4ccc(OCC5CCOC(C)(C)C5)c([N+](=O)[O-])c4)c(Oc4ccc5[nH]ccc5c4)c3)CC2)=C(c2ccc(Cl)cc2)C1 (stereo not shown) [Example 384, 4-(4-{[2-(4-chlorophenyl)-4,4-dimethylcyclohex-1-en-1-yl]methyl}piperazin-1-yl)-N-({4-[(2,2-dimethyltetrahydro-2H-pyran-4-yl)methoxy]-3-nitrophenyl}sulfonyl)-2-(1H-indol-5-yloxy)benzamide] | 0.076 | > 660 | 101 | – |
| C[C@@H](c1ccccc1-c1ccc(Cl)cc1)N1CCN(c2ccc(C(=O)NS(=O)(=O)c3ccc(NCC4CCOCC4)c([N+](=O)[O-])c3)c(Oc3cccc4[nH]ccc34)c2)CC1 [Example 256, 4-{4-[(1S)-1-(4′-chloro-1,1′-biphenyl-2-yl)ethyl]piperazin-1-yl}-2-(1H-indol-4-yloxy)-N-({3-nitro-4-[(tetrahydro-2H-pyran-4-ylmethyl)amino]phenyl}sulfonyl)benzamide] | 0.12 | > 660 | 8.89 | – |
| CC1(C)CCC(CN2CCN(c3ccc(C(=O)NS(=O)(=O)c4ccc(CCC5CCOCC5)c([N+](=O)[O-])c4)c(Oc4ccc5[nH]ccc5c4)c3)CC2)=C(c2ccc(Cl)cc2)C1 [Example 296, 4-(4-{[2-(4-chlorophenyl)-4,4-dimethylcyclohex-1-en-1-yl]methyl}piperazin-1-yl)-2-(1H-indol-5-yloxy)-N-{[3-nitro-4-(2-tetrahydro-2H-pyran-4-ylethyl)phenyl]sulfonyl}benzamide] | 0.651 | > 660 | 182 | – |

— patent publication US9073855B2, “BCL-2 selective apoptosis-inducing agents for the treatment of cancer and immune diseases” (AbbVie Inc., priority 2008, dated 2015)
